We go through 6 compounds from US9809623B2, “α4β7 peptide monomer and dimer antagonists” (Protagonist Therapeutics, Inc., priority 2014, dated 2017).

Broadly, the IC50 is the midpoint of a concentration-inhibition curve. Usually half-life stands for the time in which the quantity being followed falls by half.

The target of one data set is αLβ2 (Homo sapiens, UniProt P05107+P20701). Put plainly: PBMC memory T cell adhesion to ICAM-1. Details: endogenous in cells. Conditions: memory T cells isolated from human PBMC donors; read-out: IC50 (nM), memory T cells, Ligand ICAM-1. The class given is cell-based.
αLβ2, sequence (P20701 26-1170): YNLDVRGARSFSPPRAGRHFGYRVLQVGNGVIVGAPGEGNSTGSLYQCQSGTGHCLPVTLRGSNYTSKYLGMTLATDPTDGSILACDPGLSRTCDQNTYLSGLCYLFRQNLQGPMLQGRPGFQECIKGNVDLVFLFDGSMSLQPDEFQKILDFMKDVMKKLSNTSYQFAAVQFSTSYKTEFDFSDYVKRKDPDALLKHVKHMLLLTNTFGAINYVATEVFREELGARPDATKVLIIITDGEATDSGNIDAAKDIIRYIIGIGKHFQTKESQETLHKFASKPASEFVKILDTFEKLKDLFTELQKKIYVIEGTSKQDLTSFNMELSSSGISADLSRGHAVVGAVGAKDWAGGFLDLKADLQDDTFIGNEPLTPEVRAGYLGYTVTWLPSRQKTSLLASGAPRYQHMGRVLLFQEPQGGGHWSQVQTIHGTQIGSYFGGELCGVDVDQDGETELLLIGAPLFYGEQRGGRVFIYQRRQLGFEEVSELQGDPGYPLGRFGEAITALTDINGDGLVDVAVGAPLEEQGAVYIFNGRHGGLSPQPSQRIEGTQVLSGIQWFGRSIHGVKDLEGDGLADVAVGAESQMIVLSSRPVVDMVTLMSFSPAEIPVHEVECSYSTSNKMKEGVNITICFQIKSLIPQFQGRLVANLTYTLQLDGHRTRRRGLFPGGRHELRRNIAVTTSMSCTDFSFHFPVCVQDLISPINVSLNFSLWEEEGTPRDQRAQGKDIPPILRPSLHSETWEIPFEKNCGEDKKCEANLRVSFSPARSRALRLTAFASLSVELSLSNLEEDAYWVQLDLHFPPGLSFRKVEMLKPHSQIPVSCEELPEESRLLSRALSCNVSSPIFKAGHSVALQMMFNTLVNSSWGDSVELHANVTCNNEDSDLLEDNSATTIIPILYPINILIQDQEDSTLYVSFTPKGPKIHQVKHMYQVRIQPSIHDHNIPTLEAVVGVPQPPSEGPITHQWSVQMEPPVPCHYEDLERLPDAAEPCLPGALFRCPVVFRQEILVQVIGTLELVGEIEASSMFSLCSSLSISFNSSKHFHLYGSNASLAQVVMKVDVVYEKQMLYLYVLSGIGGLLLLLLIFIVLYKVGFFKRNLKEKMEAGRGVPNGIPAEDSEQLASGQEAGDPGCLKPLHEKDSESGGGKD
αLβ2, sequence (P05107 23-769): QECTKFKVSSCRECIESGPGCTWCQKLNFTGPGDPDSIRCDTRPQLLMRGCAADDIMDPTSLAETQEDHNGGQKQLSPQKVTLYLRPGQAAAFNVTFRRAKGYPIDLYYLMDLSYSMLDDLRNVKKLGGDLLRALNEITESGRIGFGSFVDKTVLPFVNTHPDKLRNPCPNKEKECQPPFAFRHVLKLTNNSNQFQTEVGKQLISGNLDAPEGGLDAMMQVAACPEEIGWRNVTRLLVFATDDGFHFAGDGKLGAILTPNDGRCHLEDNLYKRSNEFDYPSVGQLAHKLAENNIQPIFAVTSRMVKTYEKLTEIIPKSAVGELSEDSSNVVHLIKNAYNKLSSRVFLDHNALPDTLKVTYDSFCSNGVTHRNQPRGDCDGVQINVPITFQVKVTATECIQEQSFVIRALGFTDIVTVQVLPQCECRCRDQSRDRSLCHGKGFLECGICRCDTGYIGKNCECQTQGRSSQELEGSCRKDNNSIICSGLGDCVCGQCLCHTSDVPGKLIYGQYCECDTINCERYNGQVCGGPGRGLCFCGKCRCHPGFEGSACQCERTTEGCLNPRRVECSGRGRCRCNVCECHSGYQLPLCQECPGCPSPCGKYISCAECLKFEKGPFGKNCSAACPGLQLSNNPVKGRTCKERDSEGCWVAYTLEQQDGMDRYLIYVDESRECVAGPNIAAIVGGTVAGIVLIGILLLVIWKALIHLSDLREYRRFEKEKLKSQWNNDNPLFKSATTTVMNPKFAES
For data set [1], the system named is BALB/c mice, chronic DSS colitis. Put plainly: 15 day chronic DSS colitis mouse model. It is filed as in vivo. On the procedure:
To further evaluate the efficacy of peptides of the present invention in treating colitis, a chronic DSS colitis mouse model was used to examine the effects of orally administered Peptide X or another peptide, Peptide XX, as compared to vehicle control or the antibodies, MECA 367 and DATK32. Peptide XX is a dimer having the following structure, where DIG links the two peptide monomers by their C-termini:
In this 15 day chronic DSS colitis study, BALB/c mice were treated continuously with 2.5% DSS. Peptide X dosing was 55 mg/kg/day, 17 mg/kg/day or 6 mg/kg/day in drinking water. Peptide XX dosing was 10 mg/kg PO BID plus 0.2 mg/ml in drinking water. The anti-α4β7 Ab DATK32 was dosed 25 mg/kg IP every 3 days, and the anti-MAdCAM Ab MECA 367 was dosed 8 mg/kg IP daily. After takedown, distal colon sections were fixed for histopathology and processed for β7+ cell IH staining using the anti-β7 antibody M293.

The nature of the next data set: Intestinal Wash Assay. To be noted: rat, rat intestinal wash fluid (small intestine); Table 4-C, t1/2. Also on record: dose or concentration left out as unconfirmed. It is filed as in vitro ADME. On the procedure: Intestinal wash assay solution was prepared from rats fasted for at least 6 hours prior. The animals were euthanized and a midline incision was made from the point of the jaw to the pubis. The abdomen and chest were opened by making 2 incisions through the anterior chest wall on either side. Hemostats were used to clamp off both ends of the animal's stomach—where the esophagus meets the stomach and where the stomach meets the duodenum. A hemostat was also used to clamp 2-3 cm down the intestine from where the stomach meets the duodenum.
Intestinal wash assay solution was prepared by separating 20 cm of the small intestine from the body. Once separated 20 cm, the end was clamped with a hemostat and the section cut from the body, leaving the hemostats in place on the removed section. 1 mL of chilled saline was drawn up with a 1 mL syringe. One end of the intestine was held up and the clamp removed. Approximately 2-2.5 cm of the gavage needle was inserted into the intestine, and the saline was slowly injected. The fluid was massaged down the length of the intestine using gloved fingers. The gavage needle was removed and the clamp was replaced on the end of the intestine. The intestine was sat straight and a q-tip was run firmly up and down the length of the outside of the intestine approximately 3-6 times to mix the enzymes with the saline. One end of the intestine was held up and some of the fluid was carefully moved at the top down. The clamp was removed and that end of the intestine was set into a small weigh boat on ice. The other end of the intestine was carefully picked up and held vertically. Gloved fingers were gently run down it to squeeze the fluid into the container. The previous steps saline injection and fluid procurement steps were repeated twice using only 0.5 mL of chilled saline. The sample was pipetted from the weigh boat into a centrifuge tube and placed on ice. All intestinal wash samples were spun down in a cold centrifuge at 12,000×g for 10 minutes. The supernatant from the top of each centrifuged sample was pipetted into cryotubes, and kept on ice until use.
Intestinal wash assays were performed using intestinal wash assay solution prepared as described above. A sufficient amount of rat intestinal wash was thawed. For each sample, 200 uL of rat intestinal wash fluid was pipetted into 1.5 mL Eppendorf tubes (number of tubes for experiment=number of test peptides×N). The tubes were pre-incubated for about 10 minutes in a water bath at 37° C.
Peptide working solutions ([…]) were prepared by combining 2 μl of 10 mM DMSO stock with 128 μl 100 mM Tris pH 7.5.
Peptide quench solvent (50% ACN-50% MeOH-5% Formic Acid)+IS (5 ug/ml; 1 ul of 10 mg/mL IS per 2 mL quench solvent) was prepare and a quench plate prepared and placed on ice. 200 ul of quench solution was added to each well of the quench plate for T=0, 10, 20, 30, 60 and 180 min collection.
For each test sample and a positive control, 30 ul of peptide working solution was added to a tube of intestinal wash fluid. The tube was gently vortexed and 30 ul was immediately removed and quenched in T=0 well of quench plate (pipetted directly into the quench solution). This well was covered tightly to prevent evaporation. 30 ul aliquots were removed at T=10 min, T=20 min, T=30 min, T=60 min, and T=180 min, and quenched. When all time points were collected, the quench plate was centrifuged at 10,000 rpm for 10 minutes. 150 uL of each supernatant was transferred to a polypropylene 96-well collection plate. 300 ul Mobile Phase A was added to each collection, and LC/MS/MS analysis was performed to determine the amount or concentration of peptide remaining in each test sample and positive control.

[2] abbreviates: 10 mg/kg PO BID plus 0.2 mg/ml in drinking water.

The structures appear in SMILES notation. Numbered stars: 1 amine (or outer) side, 2 acyl side, 3 side chain; on linkers, the order of the positions; unused ones are H or OH. Bridge positions count the residues as written; N and C are the ends. Square brackets hold non-standard residues; d marks the D form. Peptide text beside a SMILES is read from it. I, II: the chains in the order shown. ξ: configuration not given here. Phe(4-tBu) = CC(C)(C)c1ccc(C[C@H](N)C(=O)O)cc1; Diglycolyl = O=C(COCC(=O)[*:2])[*:1]; NMeR = CN[C@@H](CCCNC(=N)N)C(=O)O; β3hE = N[C@@H](CCC(=O)O)CC(=O)O; Thr(3ξ) = CC(O)[C@H](N)C(=O)O; NMeK = CN[C@@H](CCCCN)C(=O)O; Pen = CC(C)(S)[C@H](N)C(=O)O A value given as a limit tells only on which side of the number the result lay.

As to `CC(=O)N[C@@H]1C(=O)N(C)[C@@H](CCCNC(=N)N)C(=O)N[C@@H](CO)C(=O)N[C@@H](CC(=O)O)C(=O)N[C@@H](C(C)O)C(=O)N[C@@H](CC(C)C)C(=O)N[C@H](C(=O)N[C@@H](Cc2ccc(C(C)(C)C)cc2)C(=O)N[C@@H](CCC(=O)O)CC(=O)N[C@H](CCCCNC(=O)COCC(=O)NCCCC[C@@H](NC(=O)C[C@H](CCC(=O)O)NC(=O)[C@H](Cc2ccc(C(C)(C)C)cc2)NC(=O)[C@H]2NC(=O)[C@H](CC(C)C)NC(=O)[C@H](C(C)O)NC(=O)[C@H](CC(=O)O)NC(=O)[C@H](CO)NC(=O)[C@H](CCCNC(=N)N)N(C)C(=O)[C@@H](NC(C)=O)C(C)(C)SSC2(C)C)C(N)=O)C(N)=O)C(C)(C)SSC1(C)C` (stereo partly drawn) [Peptide X, [Ac-Pen-(N-Me-Arg)-Ser-Asp-Thr-Leu-Pen-(Phe(4-tBu))-(β-homoGlu)-(D-Lys)]2-DIG] (I: Ac-[Pen][NMeR]SD[Thr(3ξ)]L[Pen][Phe(4-tBu)][β3hE][dK]-NH2 / II: Ac-[Pen][NMeR]SD[Thr(3ξ)]L[Pen][Phe(4-tBu)][β3hE][dK]-NH2; disulfide I:1-I:7, II:1-II:7; linker I:10-II:10 via Diglycolyl), at αLβ2, the 50% inhibitory concentration (IC50) is more than 100000 nM. In addition, the “infiltration of B7+ cells into the lamina propria of the distal colon” value in data set [1] (all doses: 55, 17 or 6 mg/kg/day in drinking water) is “reduced infiltration”. With `CC(=O)N[C@@H]1C(=O)N(C)[C@@H](CCCNC(=N)N)C(=O)N[C@@H](CO)C(=O)N[C@@H](CC(=O)O)C(=O)N[C@@H]([C@@H](C)O)C(=O)N[C@@H](CC(C)C)C(=O)N[C@H](C(=O)N[C@@H](Cc2c[nH]c3ccccc23)C(=O)N[C@@H](CCC(=O)O)CC(=O)N[C@H](CCCCNC(=O)COCC(=O)NCCCC[C@@H](NC(=O)C[C@H](CCC(=O)O)NC(=O)[C@H](Cc2c[nH]c3ccccc23)NC(=O)[C@H]2NC(=O)[C@H](CC(C)C)NC(=O)[C@H]([C@@H](C)O)NC(=O)[C@H](CC(=O)O)NC(=O)[C@H](CO)NC(=O)[C@H](CCCNC(=N)N)N(C)C(=O)[C@@H](NC(C)=O)C(C)(C)SSC2(C)C)C(N)=O)C(N)=O)C(C)(C)SSC1(C)C` [compound 213, [Ac-Pen-(N-Me-Arg)-Ser-Asp-Thr-Leu-Pen-Trp-(β-homoGlu)-(D-Lys)-NH2]2-DIG] (I: Ac-[Pen][NMeR]SDTL[Pen]W[β3hE][dK]-NH2 / II: Ac-[Pen][NMeR]SDTL[Pen]W[β3hE][dK]-NH2; disulfide I:1-I:7, II:1-II:7; linker I:10-II:10 via Diglycolyl), in data set [1] (setting [2]), the “colon macroscopic and histopathology scores” value was “reduced colon macroscopic and histopathology scores comparable to the antibodies”; the “infiltration of B7+ cells into the lamina propria of the distal colon” value is given as “reduced infiltration”. Compound `CC(=O)N[C@@H]1C(=O)N(C)[C@@H](CCCNC(=N)N)C(=O)N[C@@H](CO)C(=O)N[C@@H](CC(=O)O)C(=O)N[C@@H]([C@@H](C)O)C(=O)N[C@@H](CC(C)C)C(=O)N[C@H](C(=O)N[C@@H](Cc2c[nH]c3ccccc23)C(=O)N[C@@H](CCC(=O)O)C(=O)N(C)[C@@H](CCCCNC(=O)COCC(=O)NCCCC[C@@H](C(N)=O)N(C)C(=O)[C@H](CCC(=O)O)NC(=O)[C@H](Cc2c[nH]c3ccccc23)NC(=O)[C@H]2NC(=O)[C@H](CC(C)C)NC(=O)[C@H]([C@@H](C)O)NC(=O)[C@H](CC(=O)O)NC(=O)[C@H](CO)NC(=O)[C@H](CCCNC(=N)N)N(C)C(=O)[C@@H](NC(C)=O)C(C)(C)SSC2(C)C)C(N)=O)C(C)(C)SSC1(C)C` [compound 215, [Ac-Pen-(N-Me-Arg)-Ser-Asp-Thr-Leu-Pen-Trp-Glu-(N-Me-Lys)-NH2]2-DIG] (I: Ac-[Pen][NMeR]SDTL[Pen]WE[NMeK]-NH2 / II: Ac-[Pen][NMeR]SDTL[Pen]WE[NMeK]-NH2; disulfide I:1-I:7, II:1-II:7 (inferred); linker I:10-II:10 via Diglycolyl (inferred)) came in with a half-life in the data set “Intestinal Wash Assay” of more than 6 h. In the data set “Intestinal Wash Assay”, `CC(=O)N[C@@H]1C(=O)N(C)[C@@H](CCCNC(=N)N)C(=O)N[C@@H](CO)C(=O)N[C@@H](CC(=O)O)C(=O)N[C@@H]([C@@H](C)O)C(=O)N[C@@H](CC(C)C)C(=O)N[C@H](C(=O)N[C@@H](Cc2c[nH]c3ccccc23)C(=O)N[C@H](CCC(=O)O)C(=O)N[C@H](CCCCNC(=O)COCC(=O)NCCCC[C@@H](NC(=O)[C@@H](CCC(=O)O)NC(=O)[C@H](Cc2c[nH]c3ccccc23)NC(=O)[C@H]2NC(=O)[C@H](CC(C)C)NC(=O)[C@H]([C@@H](C)O)NC(=O)[C@H](CC(=O)O)NC(=O)[C@H](CO)NC(=O)[C@H](CCCNC(=N)N)N(C)C(=O)[C@@H](NC(C)=O)C(C)(C)SSC2(C)C)C(=O)O)C(=O)O)C(C)(C)SSC1(C)C` [compound 216, (Ac-Pen-N-Me-R-S-D-T-L-Pen-W-e-k-OH)2-DIG] (I: Ac-[Pen][NMeR]SDTL[Pen]W[dE][dK]-OH / II: Ac-[Pen][NMeR]SDTL[Pen]W[dE][dK]-OH; disulfide I:1-I:7, II:1-II:7 (inferred); linker I:10-II:10 via Diglycolyl (inferred)) returned a half-life of more than 6 h. `CC(=O)N[C@@H]1C(=O)N(C)[C@@H](CCCNC(=N)N)C(=O)N[C@@H](CO)C(=O)N[C@@H](CC(=O)O)C(=O)N[C@@H]([C@@H](C)O)C(=O)N[C@@H](CC(C)C)C(=O)N[C@H](C(=O)N[C@@H](Cc2c[nH]c3ccccc23)C(=O)N[C@@H](CCC(=O)O)C(=O)N[C@H](CCCCNC(=O)COCC(=O)NCCCC[C@@H](NC(=O)[C@H](CCC(=O)O)NC(=O)[C@H](Cc2c[nH]c3ccccc23)NC(=O)[C@H]2NC(=O)[C@H](CC(C)C)NC(=O)[C@H]([C@@H](C)O)NC(=O)[C@H](CC(=O)O)NC(=O)[C@H](CO)NC(=O)[C@H](CCCNC(=N)N)N(C)C(=O)[C@@H](NC(C)=O)C(C)(C)SSC2(C)C)C(N)=O)C(N)=O)C(C)(C)SSC1(C)C` [compound 217, (Ac-Pen-N-Me-R-S-D-T-L-Pen-W-E-k-NH2)2-DIG] (I: Ac-[Pen][NMeR]SDTL[Pen]WE[dK]-NH2 / II: Ac-[Pen][NMeR]SDTL[Pen]WE[dK]-NH2; disulfide I:1-I:7, II:1-II:7 (inferred); linker I:10-II:10 via Diglycolyl (inferred)) gave a half-life in “Intestinal Wash Assay” of more than 3 h.

Regarding `CC(=O)N[C@@H]1C(=O)N(C)[C@@H](CCCNC(=N)N)C(=O)N[C@@H](CO)C(=O)N[C@@H](CC(=O)O)C(=O)N[C@@H]([C@@H](C)O)C(=O)N[C@@H](CC(C)C)C(=O)N[C@H](C(=O)N[C@@H](Cc2ccc(C(C)(C)C)cc2)C(=O)N[C@@H](CCC(=O)O)CC(=O)N[C@H](CCCCNC(=O)COCC(=O)NCCCC[C@@H](NC(=O)C[C@H](CCC(=O)O)NC(=O)[C@H](Cc2ccc(C(C)(C)C)cc2)NC(=O)[C@H]2NC(=O)[C@H](CC(C)C)NC(=O)[C@H]([C@@H](C)O)NC(=O)[C@H](CC(=O)O)NC(=O)[C@H](CO)NC(=O)[C@H](CCCNC(=N)N)N(C)C(=O)[C@@H](NC(C)=O)C(C)(C)SSC2(C)C)C(N)=O)C(N)=O)C(C)(C)SSC1(C)C` [compound 218, [Ac-Pen-(N-Me-Arg)-Ser-Asp-Thr-Leu-Pen-Phe(4-tBu)-(β-homoGlu)-(D-Lys)-NH2]2-DIG] (I: Ac-[Pen][NMeR]SDTL[Pen][Phe(4-tBu)][β3hE][dK]-NH2 / II: Ac-[Pen][NMeR]SDTL[Pen][Phe(4-tBu)][β3hE][dK]-NH2; disulfide I:1-I:7, II:1-II:7; linker I:10-II:10 via Diglycolyl), in the data set “Intestinal Wash Assay”, the half-life was more than 6 h.
